From patent US10722530B2, “Methods of diagnosing and treating cancer” (CASE WESTERN RESERVE UNIVERSITY, priority 2016, dated 2020)

Assays:
A2780 = assay: Clonogenic survival assay; assay type: cell-based; details: Homo sapiens; A2780 (p53 wt), 24 h treatment, colonies after at least 10 days
Procedure: (§4) Cancer cells (200-300 cells/well) were seeded in 6-well culture dishes and allowed to adhere overnight. For 5-FdU, cells were treated for 24 h, then gently washed with PBS, and incubated with fresh media for at least 10 days to allow individual colonies to form. […] After 10-18 days, the plates were stained with methylene blue. Colonies containing ≥50 cells were counted. The percentage of survival was determined relative to untreated control averaged over 3 independent experiments.

H1299 = assay: Clonogenic survival assay; assay type: cell-based; details: Homo sapiens, NCI-H1299; H1299 (p53 null), 24 h treatment, colonies after at least 10 days
Procedure: as §4

A375 = assay: Clonogenic survival assay; assay type: cell-based; details: Homo sapiens, A-375; A375 (p53 wt), 24 h treatment, colonies after at least 10 days
Procedure: as §4

DLD1 cells [1] = assay: DNA fiber assay (replication fork progression); assay type: cell-based, human; details: 100 nM 5-FdU 24 h; for reduction of mean fiber length: vs untreated
Procedure: DNA fiber analysis was performed as described by Han et al. (J. Biol. (2015) 290:12370-8). Cells treated with 100 nM 5-FdU for 24 h were pulse-labeled with 100 μM chlorodeoxyuridine (CIdU) for 20 minutes, washed with PBS, and 25 μM Iododeoxyuridine (IdU) for 20 minutes. Cells were collected in PBS, and 2.5 μL of cell suspension was dropped on glass slide. 7.5 μL of lysis buffer (0.5% SDS, 200 mM Tris-HCl pH 7.4, 50 mM EDTA) was dropped on the cell suspension and lysis for 10 minutes. Slides were then tilted at 15° to spread the suspension and placed horizontally to allow air-dry. After drying, slides were fixed in 3:1 methanol:acetic acid for 15 minutes, washed with water, and placed at −20° C. overnight. Slides were then treated with 2.5 M HCl for 1 h, washed with PBS containing 0.1% Tween-20, washed twice with PBS, blocked in PBS containing 5% BSA and 0.1% Tween 20 for 20 minutes, and rinsed with PBS three times. After washing, 100 μL primary antibodies: mouse anti-BrdU/IdU (Becton Dickinson, 1:100) and rat anti-BrdU/CIdU (AbD Serotec, 1:400) diluted in PBS containing 5% BSA and 0.1% were added to incubate in a humid chamber for 4-6 h. After incubation, slides were washed with PBS three times, incubated with secondary fluorescent antibodies: sheep anti-mouse Alexa Fluor 488 (Life technologies) and donkey anti-rat Alexa Fluor 594 (Life technologies) diluted in PBS containing 5% BSA for 1 h. Slides were washed with PBS three times and mounted with Vectashield mounting medium. Image acquisition was performed on a Leica laser microscope. DNA fiber length was measured by using ImageJ software (NCl/NIH).

HCT116 p53 KO cells [2] = assay: Flow cytometric assay of apoptosis (Annexin V/PI); assay type: cell-based, human; details: 25 nM 5-FdU 24 h
Procedure: (§1) Cells were seeded in 6-well tissue culture plates (1.5×10^5 cells/well) and allowed to attach overnight. Cells were then treated with 25 nM 5-FdU for 24 h, washed twice with PBS, replenished with drug-free medium at 48, 72, and 96 h. After recovery, the cells floating in the medium were collected. The adherent cells were trypsinized, pelleted, washed in ice-cold PBS, and resuspended in 1× Binding Buffer according to the manufacturer's instructions (FITC Annexin V Apoptosis Detection Kit, BD Pharmingen). Cells were then stained with FITC Annexin V and PI for 15 minutes at room temperature in the dark. Annexin V-FITC detects translocation of […] from the inner to the out cell membrane during early apoptosis, and PI can enter the cells in late apoptosis or necrosis. Untreated cells were used as control for the double staining. The cells were analyzed immediately after staining using a Attune NXT instrument and FlowJo software. For each measurement, at least 20,000 cells were counted.

HCT116 p53 WT cells = assay: Flow cytometric assay of apoptosis (Annexin V/PI); assay type: cell-based, human; details: 25 nM 5-FdU 24 h, at 48 h, both UDG expressing and UDG depleted cells
Procedure: as §1

γH2AX foci in DLD1 cells = assay: γH2AX foci immunofluorescence staining; assay type: cell-based, human; details: 50 nM 5-FdU
Procedure: (§2) Cells cultured on glass coverslips were treated with 5-FdU in the presence or absence of 10 μM caspase inhibitor Q-VD-OPH (BioVision Inc). Cells were fixed in 3.7% formaldehyde for 10 minutes, blocked with PBS containing 10% FBS and 0.1% Triton X-100 for 20 minutes, washed with PBS three times, and incubated with primary anti-γH2AX antibody (Millipore, dilution: 1:150) in PBS containing 0.1% Triton X-100 at 4° C. overnight. The cells were then washed with PBS three times, incubated with secondary antibodies (Alexa Fluor 594, Life Technologies; dilution: 1:400) in PBS containing 0.1% Triton X-100 for 1 h, and washed with PBS three times. The slides were mounted with antifade solution with DAPI (Cell Signaling) and visualized on a Leica laser microscope.

[3] = system: γH2AX foci in HEC1A cells; assay: γH2AX foci immunofluorescence staining; assay type: cell-based, human; details: 50 nM 5-FdU
Procedure: as §2

[4] = system: cleaved PARP in DLD1 cells; assay: Western blot of cleaved PARP; assay type: cell-based, human; details: DLD1, 50 nM 5-FdU
Procedure: (§3) Western blots were performed as described in Yan et al. (Clin Cancer Res. (2007) 13:1532-39). Antibodies used were as follows: Anti-UDG (FL-313) (Santa Cruz Biotechnology), anti-Cleaved PARP (Asp214)(19F4) (Cell Signaling), and anti-α-Tubulin (Calbiochem).

[5] = system: cleaved PARP in HEC1A cells; assay: Western blot of cleaved PARP; assay type: cell-based, human; details: HEC1A, 50 nM 5-FdU
Procedure: as §3

HCT116 p53 KO cells [6] = system: HCT116 p53 KO cells
From the text: p53 or UDG knockdown was achieved via shRNA transduction. Lentiviral vectors LV-THM-shp53 (which also expresses a GFP reporter) or LV-Bleo-shp53 to perform p53 KD in WT HCT116 cells were obtained from Case Western Reserve University, Cleveland, Ohio Lentiviral vector targeting GFP (sh-GFP) was used as control. UDG shRNA vectors (shUDG: NM_003362.2-656s21c1, shUDG-2: NM_003362.2-758s21c1, and shUDG-3: NM_003362.2-893s21c1) were purchased from Sigma, and a scramble targeting shRNA vector (Sigma) was used as paired control. The lentiviral production and infection were performed as previously described. Cells stably infected with LV-THM-p53 were isolated by cell sorting on the basis of their GFP expression.
as §4

DLD1 cells [7] = assay: LC-MS/MS of uracil and 5-FU incorporated in cellular DNA; details: 5-FdU 100 and 200 nM 48 h
Procedure: Genomic DNA was extracted from cells treated with 5-FdU via phenol-chloroform mixture. 80 μg of DNA sample was dissolved in 1×UDG reaction buffer (20 mM Tris-HCl, 1 mM EDTA and 1 mM dithiothreitol, pH 8.0) and incubated with UDG enzyme (1 μL, 5 units) for 1 h at 37° C. For LC-MS/MS analysis of DNA-incorporated uracil and 5-FU, 75 μL of the enzyme reaction mixture was obtained, and uracil-1,3-^15N2 was used as the internal standard (Sigma-Aldrich). All uracil and 5-FU standards, internal standard, and QC samples were prepared in 1×UDG reaction buffer. […] Quantitation of the analytes was accomplished by a AB Sciex API 3200 triple quadrupole tandem mass spectrometer (AB Sciex), which was operated in the negative multiple-reaction-monitoring (MRM) mode with mass transitions of m/z 110.8>42.0 for uracil, m/z 112.9>43.0 for uracil-1,3-^15N2 and m/z 129.0>42.0 for 5-FU. This method has lower limits of quantitation of 2.50 ng/mL and linear calibration ranges up to 500 ng/mL for both uracil and 5-FU with a sample injection volume of 15 μL, as well as a total analysis time of 6 min.

Procedure for DLD1 colon cancer cells: UDG knockdown was performed via shRNA transduction with validated clone from Sigma-Aldrich. […] A non-targeted scramble control shRNA clone (Sigma-Aldrich) was also used. Transfection of shRNA clones was performed according to manufacturer's specifications from Lipofectamine 2000 (Invitrogen). Lentiviral particles were produced via HEK293 cells, and targeted cells were infected and selected with puromycin. The stable UDG knockdown levels were verified for q-PCR and western blot analysis.
Colonies were stained with methylene blue, and only colonies containing ≥50 cells were counted. The percentage of survival was determined relative to untreated control averaged over 3 independent experiments.

Structure (SMILES): O=c1[nH]c(=O)n([C@H]2C[C@H](O)[C@@H](CO)O2)cc1F [5-FdU, 5-fluorodeoxyuridine]
- IC50 (A2780): 1.32 ± 0.33 nM
- IC50 (H1299): 269.6 ± 0.73 nM
- IC50 (A375): 111 ± 1.8 nM
- mean fiber length of nascent DNA strands (DLD1 cells [1]; UDG depleted cells): 2.8 μm
- reduction of mean fiber length (DLD1 cells [1]; UDG depleted cells): 63%
- mean fiber length of nascent DNA strands (DLD1 cells [1]; shSCR-transfected cells): 5.7 μm
- reduction of mean fiber length (DLD1 cells [1]; shSCR-transfected cells): 23%
- cell death (Annexin V and PI positive) (HCT116 p53 KO cells [2]; UDG depleted cells, 48 to 96 h): significantly elevated
- cell death (Annexin V and PI positive) (HCT116 p53 KO cells [2]; UDG expressing cells): significantly lower
- cell death (Annexin V and PI positive) (HCT116 p53 WT cells): significant cell death
- γH2AX foci number and percentage of cells with over 10 foci over time (γH2AX foci in DLD1 cells; DLD1 UDG depleted): remained persistent
- γH2AX foci number and percentage of cells with over 10 foci over time (γH2AX foci in DLD1 cells; DLD1 shSCR, after maximum at 12 h): gradually declined
- γH2AX foci number and percentage of cells with over 10 foci over time ([3]; HEC1A UDG depleted): remained high
- γH2AX foci number and percentage of cells with over 10 foci over time ([3]; HEC1A shSCR, after maximum at 48 h): reduced at 72 h and 96 h
- time of 5-FdU treatment until appearance of cleaved PARP [4]: > 24 h
- time of 5-FdU treatment until appearance of cleaved PARP [5]: > 96 h
- cell survival in shSCR-transfected cells (DLD1 colon cancer cells; DLD1 shSCR, high concentrations): moderate loss of cell viability
- effect of UDG depletion on drug sensitivity (DLD1 colon cancer cells; DLD1 shUDG vs shSCR): highly sensitized
- resistance compared with p53 WT cells (HCT116 p53 KO cells [6]; HCT116 p53 KO vs p53 WT): more resistant
- effect of UDG depletion on cytotoxicity (HCT116 p53 KO cells [6]; HCT116 p53 KO, shUDG vs shSCR): greatly enhanced cytotoxicity
- released uracil and 5-FU from genomic DNA (DLD1 cells [7]; shSCR-transfected cells): Very low levels
- released uracil and 5-FU from genomic DNA (DLD1 cells [7]; shUDG-transfected cells): significant increase
